Results from publication PMC9866191, “Novel 9-Benzylaminoacridine Derivatives as Dual Inhibitors of Phosphodiesterase 5 and Topoisomerase II for the Treatment of Colon Cancer” (Molecules, 2023).

How the values were obtained:
CCRF-CEM = experiment: NCI-60 one-dose screen; assay type: cell-based; conditions: Homo sapiens, Leukemia panel, single dose 10^−5 M, read-out: Growth inhibition %
HCT-116 = experiment: MTT cell proliferation assay, HCT-116; conditions: for % Inhibition at 10 µM: 72 h MTT, means ± SD; for IC50: read-out: IC50 μM, 72 h MTT, means ± SD, three experiments
SF-268 = experiment: NCI-60 one-dose screen; assay type: cell-based; conditions: Homo sapiens; SF-268, CNS Cancer panel; single dose 10^−5 M; read-out: Growth inhibition %
LOX IMVI = experiment: NCI-60 one-dose screen; assay type: cell-based; conditions: Homo sapiens, Melanoma panel, single dose 10^−5 M, read-out: Growth inhibition %
MDA-MB-435 = experiment: NCI-60 one-dose screen; assay type: cell-based; conditions: Homo sapiens; MDA-MB-435, Melanoma panel; single dose 10^−5 M; read-out: Growth inhibition %
MCF7 = experiment: NCI-60 one-dose screen; assay type: cell-based; conditions: Homo sapiens; MCF7, Breast Cancer panel; single dose 10^−5 M; read-out: Growth inhibition %
OVCAR-3 = experiment: NCI-60 one-dose screen; assay type: cell-based; conditions: Homo sapiens; OVCAR-3, Ovarian Cancer panel; single dose 10^−5 M; read-out: Growth inhibition %
MDA-MB-468 = experiment: NCI-60 one-dose screen; assay type: cell-based; conditions: Homo sapiens; MDA-MB-468, Breast Cancer panel; single dose 10^−5 M; read-out: Growth inhibition %
OVCAR-5 = experiment: NCI-60 one-dose screen; assay type: cell-based; conditions: Homo sapiens; OVCAR-5, Ovarian Cancer panel; single dose 10^−5 M; read-out: Growth inhibition %
DU-145 = experiment: NCI-60 one-dose screen; assay type: cell-based; conditions: Homo sapiens; DU-145, Prostate Cancer panel; single dose 10^−5 M; read-out: Growth inhibition %
SK-MEL-2 = experiment: NCI-60 one-dose screen; assay type: cell-based; conditions: Homo sapiens; SK-MEL-2, Melanoma panel; single dose 10^−5 M; read-out: Growth inhibition %
786-0 = experiment: NCI-60 one-dose screen; assay type: cell-based; conditions: Homo sapiens; 786-0, Renal Cancer panel; single dose 10^−5 M; read-out: Growth inhibition %
SF-295 = experiment: NCI-60 one-dose screen; assay type: cell-based; conditions: Homo sapiens; SF-295, CNS Cancer panel; single dose 10^−5 M; read-out: Growth inhibition %
NCI/ADR-RES = experiment: NCI-60 one-dose screen; assay type: cell-based; conditions: Homo sapiens, Ovarian Cancer panel, single dose 10^−5 M, read-out: Growth inhibition %
SK-MEL-28 = experiment: NCI-60 one-dose screen; assay type: cell-based; conditions: Homo sapiens; SK-MEL-28, Melanoma panel; single dose 10^−5 M; read-out: Growth inhibition %
NCI-H322M = experiment: NCI-60 one-dose screen; assay type: cell-based; conditions: Homo sapiens, Non-small cell lung panel, single dose 10^−5 M, read-out: Growth inhibition %
TK-10 = experiment: NCI-60 one-dose screen; assay type: cell-based; conditions: Homo sapiens; TK-10, Renal Cancer panel; single dose 10^−5 M; read-out: Growth inhibition %
UACC-62 = experiment: NCI-60 one-dose screen; assay type: cell-based; conditions: Homo sapiens; UACC-62, Melanoma panel; single dose 10^−5 M; read-out: Growth inhibition %
KM12 = experiment: NCI-60 one-dose screen; assay type: cell-based; conditions: Homo sapiens; KM12, Colon Cancer panel; single dose 10^−5 M; read-out: Growth inhibition %
PC-3 = experiment: NCI-60 one-dose screen; assay type: cell-based; conditions: Homo sapiens; PC-3, Prostate Cancer panel; single dose 10^−5 M; read-out: Growth inhibition %
HT29 = experiment: NCI-60 one-dose screen; assay type: cell-based; conditions: Homo sapiens, HT-29; HT29, Colon Cancer panel; single dose 10^−5 M; read-out: Growth inhibition %
CAKI-1 = experiment: NCI-60 one-dose screen; assay type: cell-based; conditions: Homo sapiens; CAKI-1, Renal Cancer panel; single dose 10^−5 M; read-out: Growth inhibition %
RPMI-8226 = experiment: NCI-60 one-dose screen; assay type: cell-based; conditions: Homo sapiens; RPMI-8226, Leukemia panel; single dose 10^−5 M; read-out: Growth inhibition %
HS 578T = experiment: NCI-60 one-dose screen; assay type: cell-based; conditions: Homo sapiens, Breast Cancer panel, single dose 10^−5 M, read-out: Growth inhibition %
SR = experiment: NCI-60 one-dose screen; assay type: cell-based; conditions: Homo sapiens, Leukemia panel, single dose 10^−5 M, read-out: Growth inhibition %
SNB-19 = experiment: NCI-60 one-dose screen; assay type: cell-based; conditions: Homo sapiens; SNB-19, CNS Cancer panel; single dose 10^−5 M; read-out: Growth inhibition %
T-47D = experiment: NCI-60 one-dose screen; assay type: cell-based; conditions: Homo sapiens, T47D, Breast Cancer panel, single dose 10^−5 M, read-out: Growth inhibition %
HL-60(TB) = experiment: NCI-60 one-dose screen; assay type: cell-based; conditions: Homo sapiens, Leukemia panel, single dose 10^−5 M, read-out: Growth inhibition %
HCT-15 = experiment: NCI-60 one-dose screen; assay type: cell-based; conditions: Homo sapiens; HCT-15, Colon Cancer panel; single dose 10^−5 M; read-out: Growth inhibition %
IGROV1 = experiment: NCI-60 one-dose screen; assay type: cell-based; conditions: Homo sapiens, IGROV-1; IGROV1, Ovarian Cancer panel; single dose 10^−5 M; read-out: Growth inhibition %
CCD-966SK = experiment: MTT cell proliferation assay, CCD-966SK; conditions: CCD966SK skin fibroblast; 10 µM; 72 h MTT

| Compound | inhibition at 10 µM (CCRF-CEM) [%] | % Inhibition at 10 µM (HCT-116) [%] | IC50 (HCT-116) [µM] | inhibition at 10 µM (SF-268) [%] | inhibition at 10 µM (LOX IMVI) [%] | inhibition at 10 µM (MDA-MB-435) [%] | inhibition at 10 µM (MCF7) [%] | inhibition at 10 µM (OVCAR-3) [%] | inhibition at 10 µM (MDA-MB-468) [%] | inhibition at 10 µM (OVCAR-5) [%] | inhibition at 10 µM (DU-145) [%] | inhibition at 10 µM (SK-MEL-2) [%] | inhibition at 10 µM (786-0) [%] | inhibition at 10 µM (SF-295) [%] | inhibition at 10 µM (NCI/ADR-RES) [%] | inhibition at 10 µM (SK-MEL-28) [%] | inhibition at 10 µM (NCI-H322M) [%] | inhibition at 10 µM (TK-10) [%] | inhibition at 10 µM (UACC-62) [%] | inhibition at 10 µM (KM12) [%] | other results |
| --- | --- | --- | --- | --- | --- | --- | --- | --- | --- | --- | --- | --- | --- | --- | --- | --- | --- | --- | --- | --- | --- |
| COc1ccc2nc3ccccc3c(NCc3ccccc3)c2c1 [Compound 25, Benzyl-(2-methoxyacridin-9-yl)-amine] | 66.6 | 59.62 ± 2.66 | 7.43 ± 0.77 | 55.8 | 131 | 66.2 | 95.7 | 59 | 110 | 71 | 77.5 | 52.1 | 77.7 | 80.3 | 81.7 | 50.3 | 70.5 | 61.3 | 54.1 | 63.5 | inhibition at 10 µM (PC-3): 71.3%; inhibition at 10 µM (HT29): 91.5%; inhibition at 10 µM (CAKI-1): 74.2%; inhibition at 10 µM (RPMI-8226): 131%; inhibition at 10 µM (HS 578T): 74.8%; inhibition at 10 µM (SR): 95.7%; inhibition at 10 µM (SNB-19): 75.8%; inhibition at 10 µM (T-47D): 64.7%; inhibition at 10 µM (HL-60(TB)): 91.8%; inhibition at 10 µM (HCT-15): 86.9%; inhibition at 10 µM (IGROV1): 83.6%; % Inhibition at 10 µM (CCD-966SK): 44.14 ± 3.80% |
| Fc1ccccc1CNc1c2ccccc2nc2ccccc12 [Compound 8, Acridin-9-yl-(2-fluorobenzyl)-amine] | 54 | 66.44 ± 0.80 | 3.05 ± 0.15 | 20.1 | 73.9 | 43.8 | 83.8 | 35.9 | 78.2 | 48.8 | 38.1 | 21.8 | 60 | 48.2 | 62 | 15.9 | 49.7 | 41.8 | 38.4 | 57.8 | inhibition at 10 µM (PC-3): 52.9%; inhibition at 10 µM (HT29): 76.7%; inhibition at 10 µM (CAKI-1): 64.2%; inhibition at 10 µM (RPMI-8226): 87.7%; inhibition at 10 µM (HS 578T): 30.9%; inhibition at 10 µM (SR): 82%; inhibition at 10 µM (SNB-19): 56.1%; inhibition at 10 µM (T-47D): 55.2%; inhibition at 10 µM (HL-60(TB)): 43.1%; inhibition at 10 µM (HCT-15): 70.3%; inhibition at 10 µM (IGROV1): 63.4%; % Inhibition at 10 µM (CCD-966SK): 42.52 ± 2.0% |
| c1csc(-c2ccc(CNc3c4ccccc4nc4ccccc34)cc2)c1 [Compound 24, Acridin-9-yl-(4-thiophen-2-yl-benzyl)-amine] | 97.4 | 57.14 ± 3.10 | 7 ± 0.56 | 37.1 | 191 | 183 | 163 | 90.5 | 173 | 32.9 | 38.3 | 19.2 | 70 | 84.2 | 88.8 | 186 | 49.4 | 34.9 | 35.5 | 73.7 | inhibition at 10 µM (PC-3): 76%; inhibition at 10 µM (HT29): 147%; inhibition at 10 µM (CAKI-1): 64.5%; inhibition at 10 µM (RPMI-8226): 144%; inhibition at 10 µM (HS 578T): 39.4%; inhibition at 10 µM (SR): 144%; inhibition at 10 µM (SNB-19): 53.8%; inhibition at 10 µM (T-47D): 28.1%; inhibition at 10 µM (HL-60(TB)): 157%; inhibition at 10 µM (HCT-15): 166%; inhibition at 10 µM (IGROV1): 90%; % Inhibition at 10 µM (CCD-966SK): 47.41 ± 2.48% |
| Cc1ccc(CNc2c3ccccc3nc3ccccc23)cc1 [Compound 4, Acridin-9-yl-(4-methylbenzyl)-amine] | 79.1 | 69.31 ± 2.09 | 3.59 ± 0.27 | 48.1 | 88.2 | 68.8 | 91 | 65.8 | 92.8 | 61.9 | 66.5 | 57.3 | 74.6 | 68.7 | 73.9 | 40.5 | 60.2 | 64.2 | 56.6 | 76.5 | inhibition at 10 µM (PC-3): 75.7%; inhibition at 10 µM (HT29): 89.7%; inhibition at 10 µM (CAKI-1): 81.4%; inhibition at 10 µM (RPMI-8226): 111%; inhibition at 10 µM (HS 578T): 61.5%; inhibition at 10 µM (SR): 101%; inhibition at 10 µM (SNB-19): 70.3%; inhibition at 10 µM (T-47D): 71.9%; inhibition at 10 µM (HL-60(TB)): 74.5%; inhibition at 10 µM (HCT-15): 84.4%; inhibition at 10 µM (IGROV1): 80.6%; % Inhibition at 10 µM (CCD-966SK): 38.07 ± 5.90% |
